Experimental data published in paper PMC6934184, “Selective DNA-PKcs inhibition extends the therapeutic index of localized radiotherapy and chemotherapy” (The Journal of Clinical Investigation, 2019).

Tested on: MCF7 cells
Assay: γH2AX foci nuclear fluorescence after 2.5 Gy
Format: cell-based, Human
Conditions: 1 μM, 0–24 hours after irradiation
Protocol: Cell line γH2AX and 53BP1 foci immunofluorescence and quantitation
Cells grown on coverslips or in 96-well plates were treated with 1 or 5 µM NU5455 or DMSO 1 hour prior to irradiation (0, 2.5 or 10 Gy) using an RS 320 X-ray Research System (Gulmay Medical). At set timepoints (15 or 30 minutes, or 1, 4, 5, 6, or 24 hours post-irradiation), cells were washed and fixed in methanol or 3% paraformaldehyde (PFA). Cells were blocked and permeabilized in 1% (v/v) goat serum/1% (w/v) BSA/0.1% (v/v) Triton X100 or 0.1% (v/v) Triton X100 containing 10% (w/v) dried milk powder and 2% (w/v) bovine serum albumin, followed by incubation with antibodies against γH2AX (JBW301, Millipore #05-636) and/or 53BP1 (Cell Signaling #4937). Cells were then washed and incubated with Alexa Fluor 488 goat anti-mouse and/or Alexa Fluor 568 goat anti -rabbit antibodies (A11001 or A11011 respectively, Invitrogen). In A549 and Calu-6, cells were Hoechst stained (5 µg/ml), and the average numbers of γH2AX and 53BP1 foci per cell were quantified from 400 nuclei per sample using an In Cell analyzer 1000 (GE Healthcare). For MCF7 cells, coverslips were mounted using Vectashield mounting medium with DAPI (Vector Labs) and imaged using a Leica TCS SPE confocal fluorescence microscope. Total fluorescence intensity was determined using ImagePro Plus 5.0 software (Media Cybernetics).
Clonogenic survival assays […]

CN(C(=O)CN1CCOCC1)c1ccc2sc3c(-c4cccc5c(=O)cc(N6CC7CCC(C6)O7)oc45)cccc3c2c1 [NU5455]
number of γH2AX foci: remained elevated even at 24 hours
